Test results from publication PMC9916778 (International Journal of Molecular Sciences, 2023).
Read-outs that look alike come from different tables or passages of the source.

Columns and labels:
[1] = tested on: A2780 ovarian carcinoma cells; assay: In vitro cytotoxicity (MTT assay), A2780; format: cell-based, human
Experimental: The reference normal cell line of human fetal fibroblasts (MRC-5) was obtained from the same commercial source and maintained according to the producer’s instructions. The half-maximal inhibitory concentrations (IC50) were calculated from dose–response curves by means of the GraphPad Prism 6 software (GraphPad Software, San Diego, CA, USA).

A2780 cells [2] = assay: Time-dependent cellular uptake of gold (ICP-MS); format: in vitro ADME, human
Experimental: Figure 3 The intracellular gold concentration levels caused by the incubation of [Au(kin)(PPh3)] (1), [Au(PPh3)Cl], and Auranofin with A2780 cells after 2 h, 6 h, 12 h, 24 h, 48 h, and 72 h. The results were obtained by ICP-MS analyses of three parallel samples and are shown as mean values with error bars corresponding to the standard deviation values of the gold concentration expressed in ng of gold per 10^6 cells. TEXT PRINTED IN THE PICTURE: [Au(kin)PPh3] (1): Intracellular Au content [ng/10^6 cells]: 121.3; Intracellular Au content [ng/10^6 cells]: 97.1; Intracellular Au content [ng/10^6 cells]: 88.8; Intracellular Au content [ng/10^6 cells]: 89.4; Intracellular Au content [ng/10^6 cells]: 287.5; Intracellular Au content [ng/10^6 cells]: 352.9 | Auranofin: Intracellular Au content [ng/10^6 cells]: 182.5; Intracellular Au content [ng/10^6 cells]: 231.1; Intracellular Au content [ng/10^6 cells]: 361.3; Intracellular Au content [ng/10^6 cells]: 333.9; Intracellular Au content [ng/10^6 cells]: 555.3; Intracellular Au content [ng/10^6 cells]: 320.2 | [Au(PPh3)Cl]: Intracellular Au content [ng/10^6 cells]: 84.6; Intracellular Au content [ng/10^6 cells]: 106.1; Intracellular Au content [ng/10^6 cells]: 80.7; Intracellular Au content [ng/10^6 cells]: 97.6; Intracellular Au content [ng/10^6 cells]: 304.2; Intracellular Au content [ng/10^6 cells]: 415.8 DOUBTS OF THE COPYIST ABOUT THIS PICTURE: Point labels are black, not coloured by series. Where the [Au(kin)PPh3] (1) and [Au(PPh3)Cl] curves run close together, I assigned the labels by their position above or below the points: 97.1/106.1, 88.8/80.7, 89.4/97.6 and 287.5/304.2. These assignments are not fully certain. / No incubation time is printed beside any point label, only on the axis, so no time condition is given with the values.

A2780 cells [3] = assay: Induction of apoptosis, Annexin V-FITC/PI staining; format: cell-based, human; settings: A2780, half-cytotoxic concentration, 24 h
Experimental: The induction of cell death by complex (1) was studied by two methods in the A2780 cell line. Firstly, the induction of apoptosis was tested using an Annexin V-FITC/PI commercial kit (V13242, Thermo Fisher Scientific, USA). Second, caspase 3/7 activation was monitored using the CellEvent™ Caspase-3/7 Green Flow Cytometry Assay Kit (C10427, Thermo Fisher Scientific, USA). Both assays were performed according to the manufacturers’ protocols with one modification in the caspase induction assay: the use of CellEvent^TM Caspase-3/7 Green Detection Reagent was only for the detection of caspase 3/7 activation. The general procedure was as follows: 5 × 10^4 cells per well were seeded in a 24-well cell culture plate, and after 24 h, the cells were treated with 4 µM solution of complex (1) and cultivated for next 24 h. […] The trypsin was blocked by adding the cell culture medium to a final volume of 500 µL, and the resulting cell suspensions were divided into two separate 250 µL aliquots. The first set of aliquots was used to evaluate the Annexin V-FITC/PI assay, whilst the second one was used for the caspase 3/7 activation assay. Both assays were performed using a BD FACSVerse flow cytometer (Becton Dickinson, USA) in three independent experiments, each performed in duplicate.

A2780 cells [4] = assay: Induction of autophagy (CYTO-ID kit); format: cell-based, human; settings: A2780, half-cytotoxic concentration, 24 h
Experimental: The induction of autophagy by complex (1) was studied using a CYTO-ID® Autophagy Detection Kit 2.0 (ENZO, New York, NY, USA) according to the manufacturer’s protocol. Briefly, the A2780 cells were seeded in a 24-well cell culture plate at 5 × 10^4 cells per well and cultivated for 24 h. The next day, the cells were treated with complex (1) at 4 µM. […] Then, the cells were stained with CYTO-ID® Green stain solution and incubated for 30 min in the dark. After the final wash with PBS, the cell suspensions were analyzed using the BD FACSVerse flow cytometer (Becton Dickinson, USA) in three separate experiments, while at least 10^4 events were recorded for each sample prepared in duplicates. The cells incubated with the mixture of chloroquine (10 µM) and rapamycin (0.5 µM) for 18 h were used as a positive control.

A2780 cells [5] = assay: Mitochondrial membrane potential analysis (MITO-ID); format: cell-based, human; settings: A2780, half-cytotoxic concentration, 24 h
Experimental: The A2780 cells were seeded in 24-well cell culture plates at 5 × 10^4 cells/well and cultivated for 24 h. The next day, the complex (1) was added to a final concentration of 4 µM, and the cells were incubated for another 24 h. […] The cells were then isolated by centrifugation and resuspended in a staining solution prepared according to the manufacturer’s protocol from a MITO-ID® Membrane Potential Detection kit (Enzo Life Sciences, USA). Finally, the cells were analyzed using a BD FACSVerse flow cytometer (Becton Dickinson, USA). The control was carried out by treatment with 2 µM carbonyl cyanide 3-chlorophenylhydrazone (CCCP). Three independent experiments were conducted, each in duplicate.

NF-κB = NF-κB activity in LPS-challenged cells (SEAP reporter); format: cell-based, human; settings: 100 nM, 1 h pre-treatment, LPS 24 h, THP1-Blue NF-κB monocytes
Experimental: The effect of the tested compounds to influence the function of transcription factor NF-κB was determined on lipopolysaccharide (LPS)-challenged THP1-Blue™ NF-κB cells as we described previously. […] After 24 h incubation, the activity of NF-κB was determined as the amount of secreted embryonic alkaline phosphatase using Quanti-Blue™ medium (Invivogen).

[6] = MTT, 24 h incubation, ± standard deviation, triplicate, read-out: IC50, A2780

Compound | IC50 ([1]; 24 h incubation, read-out: Time-dependent in vitro cytotoxicity (IC50), A2780, 24 h) | IC50 ([1]; 72 h incubation, read-out: Time-dependent in vitro cytotoxicity (IC50), A2780, 72 h) | IC50 [1, 6] | IC50 ([1]; read-out: Time-dependent in vitro cytotoxicity (IC50), A2780, 48 h, 48 h incubation) | Excess of intracellular gold level over [Au(kin)(PPh3)] and [Au(PPh3)Cl] (A2780 cells [2]; A2780 cells, after 12 h of incubation) | Cells in late stage apoptosis (Annexin V+/PI+) (A2780 cells [3]) | Induction of autophagy (A2780 cells [4]) | Cells with loss of mitochondrial membrane potential (A2780 cells [5]) | Effect on LPS-stimulated NF-κB activity (NF-κB) | IC50 ([1]; read-out: IC50, A2780, after 48 h and 72 h incubation, 48 h and 72 h incubation, insignificant changes) | Intracellular Au content, 2 h (A2780 cells [2]) | Intracellular Au content, 6 h (A2780 cells [2]) | Intracellular Au content, 12 h (A2780 cells [2]) | Intracellular Au content, 24 h (A2780 cells [2]) | Intracellular Au content, 48 h (A2780 cells [2]) | Intracellular Au content, 72 h (A2780 cells [2]) | Cells in early stage apoptosis (Annexin V+/PI-) (A2780 cells [3]) | Damage to mitochondrial membranes (A2780 cells [5])
CC[PH](CC)(CC)[Au][S][C@@H]1O[C@H](COC(C)=O)[C@@H](OC(C)=O)[C@H](OC(C)=O)[C@H]1OC(C)=O [Auranofin, [3,4,5-triacetyloxy-6-(acetyloxymethyl)-oxane-2-thiolate-(triethylphosphine)gold(I)]] | 3.4 ± 0.9 µM | 2 ± 0.1 µM | 3.4 ± 0.9 µM | 2.1 ± 0.4 µM | up to 4 times | around 80% | not shown to cause metabolic stress strong enough to induce the autophagy | more than 80% | the only gold(I) complex able to inhibit the activity of pro-inflammatory transcription factor NF-κB | – | – | – | – | – | – | – | – | –
[Cl][Au].c1ccc(P(c2ccccc2)c2ccccc2)cc1 [[Au(PPh3)Cl]] | – | – | 3.5 ± 0.5 µM | – | – | around 30% | significantly induced the autophagy | – | possessed some activity | ~3 µM | 84.6 ng/10^6 cells | 106.1 ng/10^6 cells | 80.7 ng/10^6 cells | 97.6 ng/10^6 cells | 304.2 ng/10^6 cells | 415.8 ng/10^6 cells | around 10% | Significant changes in mitochondrial membrane permeability
